System: Endogenous Huntingtin Protein (HTT)
Assay: Endogenous Huntingtin Protein Assay (ELISA-based MSD electrochemiluminescence)
Assay type: cell-based
Details: Table 1
Summary of the method: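 MSD electrochemiluminescence sandwich ELISA for endogenous HTT: sample lysates captured overnight at 4 °C on MW1 (expanded polyglutamine) or MAB2166 antibody. Detection used rabbit monoclonal #5656S, then goat anti-rabbit SULFO-TAG antibody, each 1 h at room temperature.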

Compared with `CCc1nc(C)cn2nc(-c3cc(=O)n4cc(C5CCN(CCF)CC5)ccc4n3)cc12` [compound 668, 2-(4-ethyl-6-methylpyrazolo[1,5-a]pyrazin-2-yl)-7-[1-(2-fluoroethyl)piperidin-4-yl]-4H-pyrido[1,2-a]pyrimidin-4-one], `CCc1nc(C)cn2nc(-c3cc(=O)n4cc(C5CCN(C(C)C)CC5)ccc4n3)cc12` [compound 679, 2-(4-ethyl-6-methylpyrazolo[1,5-a]pyrazin-2-yl)-7-[1-(propan-2-yl)piperidin-4-yl]-4H-pyrido[1,2-a]pyrimidin-4-one] is higher in IC50: 500 to 1000 nM for the first, 3000 to 33000 nM for the second.

`Cc1cn2nc(-c3cc(=O)n4cc(C5CCNCC5)cc(C)c4n3)cc2c(C)n1` [compound 671, 2-(4,6-dimethylpyrazolo[1,5-a]pyrazin-2-yl)-9-methyl-7-(piperidin-4-yl)-4H-pyrido[1,2-a]pyrimidin-4-one] and `CCN1CCC(c2cc(C)c3nc(-c4cc5c(C)nc(C)cn5n4)cc(=O)n3c2)CC1` [compound 702, 2-(4,6-dimethylpyrazolo[1,5-a]pyrazin-2-yl)-7-(1-ethylpiperidin-4-yl)-9-methyl-4H-pyrido[1,2-a]pyrimidin-4-one] fall in the same range of IC50: 1000 to 3000 nM for the first, 1000 to 3000 nM for the second.

`Cc1cn2nc(-c3cc(=O)n4cc(N5CCN(CCO)[C@H](C)C5)cc(C)c4n3)cc2c(C)n1` [compound 673, 2-(4,6-dimethylpyrazolo[1,5-a]pyrazin-2-yl)-7-[(3R)-4-(2-hydroxyethyl)-3-methylpiperazin-1-yl]-9-methyl-4H-pyrido[1,2-a]pyrimidin-4-one] and `Cc1cn2nc(-c3cc(=O)n4cc(N5CCNCC5)cc(C)c4n3)cc2c(C)n1` [compound 720, 2-(4,6-dimethylpyrazolo[1,5-a]pyrazin-2-yl)-9-methyl-7-(piperazin-1-yl)-4H-pyrido[1,2-a]pyrimidin-4-one] fall in the same range of IC50: 3000 to 33000 nM for the first, 3000 to 33000 nM for the second.

`Cc1cn2cc(-c3cc(=O)n4cc(N5CCNCC5)ccc4n3)cc(CO)c2n1` [compound 674, 2-[8-(hydroxymethyl)-2-methylimidazo[1,2-a]pyridin-6-yl]-7-(piperazin-1-yl)-4H-pyrido[1,2-a]pyrimidin-4-one] and `Cc1cn2cc(-c3cc(=O)n4cc(N5CCN(C)CC5)ccc4n3)cc(CO)c2n1` [compound 677, 2-[8-(hydroxymethyl)-2-methylimidazo[1,2-a]pyridin-6-yl]-7-(4-methylpiperazin-1-yl)-4H-pyrido[1,2-a]pyrimidin-4-one] fall in the same range of IC50: 3000 to 33000 nM for the first, 3000 to 33000 nM for the second.

`Cc1cn2nc(-c3cc(=O)n4cc(N5CCNCC5)ccc4n3)cc2c(C2CC2)n1` [compound 683, 2-(4-cyclopropyl-6-methylpyrazolo[1,5-a]pyrazin-2-yl)-7-(piperazin-1-yl)-4H-pyrido[1,2-a]pyrimidin-4-one] and `Cc1cn2nc(-c3cc(=O)n4cc(N5CCN(C)CC5)ccc4n3)cc2c(C2CC2)n1` [compound 684, 2-(4-cyclopropyl-6-methylpyrazolo[1,5-a]pyrazin-2-yl)-7-(4-methylpiperazin-1-yl)-4H-pyrido[1,2-a]pyrimidin-4-one] fall in the same range of IC50: 3000 to 33000 nM for the first, 3000 to 33000 nM for the second.

`CCN1CCN(c2ccc3nc(-c4cc5c(C6CC6)nc(C)cn5n4)cc(=O)n3c2)CC1` [compound 685, 2-(4-cyclopropyl-6-methylpyrazolo[1,5-a]pyrazin-2-yl)-7-(4-ethylpiperazin-1-yl)-4H-pyrido[1,2-a]pyrimidin-4-one] and `CCCc1nc(C)cn2nc(-c3cc(=O)n4cc(N5CCNCC5)ccc4n3)cc12` [compound 723, 2-(6-methyl-4-propylpyrazolo[1,5-a]pyrazin-2-yl)-7-(piperazin-1-yl)-4H-pyrido[1,2-a]pyrimidin-4-one] fall in the same range of IC50: 3000 to 33000 nM for the first, 3000 to 33000 nM for the second.

`Cc1cn2nc(-c3cc(=O)n4cc(N5CCNCC5)ccc4n3)cc2c(N(C)C)n1` [compound 688, 2-[4-(dimethylamino)-6-methylpyrazolo[1,5-a]pyrazin-2-yl]-7-(piperazin-1-yl)-4H-pyrido[1,2-a]pyrimidin-4-one] and `Cc1cn2nc(-c3cc(=O)n4cc(N5CCC(C)(N(C)C)CC5)ccc4n3)cc2c(C)n1` [compound 706, 7-[4-(dimethylamino)-4-methylpiperidin-1-yl]-2-(4,6-dimethylpyrazolo[1,5-a]pyrazin-2-yl)-4H-pyrido[1,2-a]pyrimidin-4-one] fall in the same range of IC50: 3000 to 33000 nM for the first, 3000 to 33000 nM for the second.

First: CCc1cc(-c2cc(=O)n3cc(C4CCNCC4)ccc3n2)cn2cc(C)nc12 [compound 696, 2-(8-ethyl-2-methylimidazo[1,2-a]pyridin-6-yl)-7-(piperidin-4-yl)-4H-pyrido[1,2-a]pyrimidin-4-one]
Second: Cc1cc(-c2cc(=O)n3cc(C4CCNCC4)ccc3n2)cc2cn(C)nc12 [compound 739, 2-(2,7-dimethyl-2H-indazol-5-yl)-7-(piperidin-4-yl)-4H-pyrido[1,2-a]pyrimidin-4-one]
The IC50 of the first is lower: under 100 nM for the first, 500 to 1000 nM for the second. The first is the more potent here.

Compared with `Cc1cc(C2CCN(C)CC2)cn2c(=O)cc(-c3ccc4nn(C)cc4c3)nc12` [compound 705, 9-methyl-2-(2-methyl-2H-indazol-5-yl)-7-(1-methylpiperidin-4-yl)-4H-pyrido[1,2-a]pyrimidin-4-one], `CCN1CCC(c2cc(C)c3nc(-c4ccc5nn(C)cc5c4)cc(=O)n3c2)CC1` [compound 719, 7-(1-ethylpiperidin-4-yl)-9-methyl-2-(2-methyl-2H-indazol-5-yl)-4H-pyrido[1,2-a]pyrimidin-4-one] is lower in IC50: 500 to 1000 nM for the first, under 100 nM for the second.

`Cc1cn2nc(-c3cc(=O)n4cc(N5CCC(C)(NCCO)CC5)ccc4n3)cc2c(C)n1` [compound 709, 2-(4,6-dimethylpyrazolo[1,5-a]pyrazin-2-yl)-7-{4-[(2-hydroxyethyl)amino]-4-methylpiperidin-1-yl}-4H-pyrido[1,2-a]pyrimidin-4-one] and `CCCc1nc(C)cn2nc(-c3cc(=O)n4cc(N5CCN[C@H](C)C5)ccc4n3)cc12` [compound 727, 7-[(3R)-3-methylpiperazin-1-yl]-2-(6-methyl-4-propylpyrazolo[1,5-a]pyrazin-2-yl)-4H-pyrido[1,2-a]pyrimidin-4-one] fall in the same range of IC50: 3000 to 33000 nM for the first, 3000 to 33000 nM for the second.

`Cc1cc(C2CCN(C3CCC3)CC2)cn2c(=O)cc(-c3ccc4nn(C)cc4c3)nc12` [compound 710, 7-(1-cyclobutylpiperidin-4-yl)-9-methyl-2-(2-methyl-2H-indazol-5-yl)-4H-pyrido[1,2-a]pyrimidin-4-one] and `Cc1cc(C2CCN(C3CC3)CC2)cn2c(=O)cc(-c3ccc4nn(C)cc4c3)nc12` [compound 718, 7-(1-cyclopropylpiperidin-4-yl)-9-methyl-2-(2-methyl-2H-indazol-5-yl)-4H-pyrido[1,2-a]pyrimidin-4-one] fall in the same range of IC50: 100 to 500 nM for the first, 100 to 500 nM for the second.

Compared with `Cc1cc(C2CCN(CCO)CC2)cn2c(=O)cc(-c3ccc4nn(C)cc4c3)nc12` [compound 711, 7-[1-(2-hydroxyethyl)piperidin-4-yl]-9-methyl-2-(2-methyl-2H-indazol-5-yl)-4H-pyrido[1,2-a]pyrimidin-4-one], `Cc1cc(C2CCNCC2)cn2c(=O)cc(-c3ccc4nn(C)cc4c3)nc12` [compound 721, 9-methyl-2-(2-methyl-2H-indazol-5-yl)-7-(piperidin-4-yl)-4H-pyrido[1,2-a]pyrimidin-4-one] is higher in IC50: 100 to 500 nM for the first, 500 to 1000 nM for the second.

Compared with `Cc1cn2cc(-c3cc(=O)n4cc(N5CCN[C@H](C)C5)ccc4n3)cc2c(C)n1` [compound 713, 2-(1,3-dimethylpyrrolo[1,2-a]pyrazin-7-yl)-7-[(3R)-3-methylpiperazin-1-yl]-4H-pyrido[1,2-a]pyrimidin-4-one], `Cc1cn2cc(-c3cc(=O)n4cc(N5CCN[C@H](C)C5)ccc4n3)cc(C(F)(F)F)c2n1` [compound 734, 7-[(3R)-3-methylpiperazin-1-yl]-2-[2-methyl-8-(trifluoromethyl)imidazo[1,2-a]pyridin-6-yl]-4H-pyrido[1,2-a]pyrimidin-4-one] is higher in IC50: 100 to 500 nM for the first, 3000 to 33000 nM for the second. The first is the more potent here.

First: Cc1cn2cc(-c3cc(=O)n4cc(N5CCNCC5)ccc4n3)cc(C3CC3)c2n1 [compound 714, 2-(8-cyclopropyl-2-methylimidazo[1,2-a]pyridin-6-yl)-7-(piperazin-1-yl)-4H-pyrido[1,2-a]pyrimidin-4-one]
Second: Cc1cn2cc(-c3cc(=O)n4cc(N5CCNCC5)ccc4n3)cc(C(F)(F)F)c2n1 [compound 733, 2-[2-methyl-8-(trifluoromethyl)imidazo[1,2-a]pyridin-6-yl]-7-(piperazin-1-yl)-4H-pyrido[1,2-a]pyrimidin-4-one]
The IC50 of the first is higher: 3000 to 33000 nM for the first, 1000 to 3000 nM for the second. The second is the more potent here.

`Cc1cn2cc(-c3cc(=O)n4cc(N5CCN[C@@H](C)C5)ccc4n3)cc(C(F)(F)F)c2n1` [compound 735, 7-[(3S)-3-methylpiperazin-1-yl]-2-[2-methyl-8-(trifluoromethyl)imidazo[1,2-a]pyridin-6-yl]-4H-pyrido[1,2-a]pyrimidin-4-one] and `Cc1cn2cc(-c3cc(=O)n4cc(N5C[C@@H](C)N[C@@H](C)C5)ccc4n3)cc(C(F)(F)F)c2n1` [compound 736, 7-[(3R,5S)-3,5-dimethylpiperazin-1-yl]-2-[2-methyl-8-(trifluoromethyl)imidazo[1,2-a]pyridin-6-yl]-4H-pyrido[1,2-a]pyrimidin-4-one] fall in the same range of IC50: 3000 to 33000 nM for the first, 3000 to 33000 nM for the second.

Compared with `Cc1cc(-c2cc(=O)n3cc(N4CCNCC4)ccc3n2)cc2cn(C)nc12` [compound 738, 2-(2,7-dimethyl-2H-indazol-5-yl)-7-(piperazin-1-yl)-4H-pyrido[1,2-a]pyrimidin-4-one], `Cc1cc(-c2cc(=O)n3cc(N4CCN[C@H](C)C4)ccc3n2)cc2cn(C)nc12` [compound 741, 2-(2,7-dimethyl-2H-indazol-5-yl)-7-[(3R)-3-methylpiperazin-1-yl]-4H-pyrido[1,2-a]pyrimidin-4-one] is higher in IC50: 100 to 500 nM for the first, 500 to 1000 nM for the second. The first is the more potent here.

Compared with `CCc1nc(C)cn2cc(-c3cc(=O)n4cc(N5C[C@@H](C)N[C@@H](C)C5)ccc4n3)cc12` [compound 748, 7-[(3R,5S)-3,5-dimethylpiperazin-1-yl]-2-(1-ethyl-3-methylpyrrolo[1,2-a]pyrazin-7-yl)-4H-pyrido[1,2-a]pyrimidin-4-one], `CCc1nc(C)cn2cc(-c3cc(=O)n4cc(N5CCCNCC5)ccc4n3)cc12` [compound 749, 7-(1,4-diazepan-1-yl)-2-(1-ethyl-3-methylpyrrolo[1,2-a]pyrazin-7-yl)-4H-pyrido[1,2-a]pyrimidin-4-one] is higher in IC50: 500 to 1000 nM for the first, 3000 to 33000 nM for the second.

— patent US11382918B2, “Methods for treating Huntington's Disease” (PTC Therapeutics, Inc., priority 2017, dated 2022)
